Measurements: ChEMBL document CHEMBL1201862, “PubChem BioAssay data set” (2004)
The source made the active and inactive calls.

Key:
[1] = viability loss in HEK293T cells – cell-based, cherry-picks, cytotoxicity control for HIV Vif inhibitor project, dose response (AID 652208); type: functional
Vero = test: viability loss in Vero cells – cell-based, plate reader, cherry-pick samples, cytotoxicity control, dose response (AID 687020); type: functional; conditions: Chlorocebus sabaeus
[2] = biological target: T1, Sentrin-specific protease 1 (Homo sapiens, UniProt Q9P0U3); test: Dose response confirmation of small molecule inhibitors of the catalytic domain of the SUMO protease, SENP1 in a FRET assay.; type: functional; conditions: read-out: IC50_Mean
T1 sequence (Q9P0U3 whole entry): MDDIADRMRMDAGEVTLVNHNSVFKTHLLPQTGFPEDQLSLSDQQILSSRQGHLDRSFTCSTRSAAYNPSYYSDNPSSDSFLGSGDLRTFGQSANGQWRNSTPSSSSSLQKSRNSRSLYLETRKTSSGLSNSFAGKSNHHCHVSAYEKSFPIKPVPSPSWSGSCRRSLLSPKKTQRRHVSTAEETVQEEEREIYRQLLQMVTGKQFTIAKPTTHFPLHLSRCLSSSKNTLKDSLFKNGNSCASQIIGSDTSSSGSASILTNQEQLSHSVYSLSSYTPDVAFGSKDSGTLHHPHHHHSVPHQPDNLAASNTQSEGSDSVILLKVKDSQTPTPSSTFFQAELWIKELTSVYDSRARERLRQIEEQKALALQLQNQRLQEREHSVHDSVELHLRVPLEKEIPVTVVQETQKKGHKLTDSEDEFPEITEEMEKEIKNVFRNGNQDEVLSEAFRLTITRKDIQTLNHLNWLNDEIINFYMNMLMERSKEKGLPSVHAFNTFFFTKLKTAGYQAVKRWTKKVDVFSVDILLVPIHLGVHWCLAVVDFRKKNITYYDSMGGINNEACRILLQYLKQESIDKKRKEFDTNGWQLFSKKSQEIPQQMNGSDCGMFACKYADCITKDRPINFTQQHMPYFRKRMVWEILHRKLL

[3] = biological target: T1, Sentrin-specific protease 1; test: SENP1 catalytic domain blockers, concentration series – biochemical, kinetic FRET, dose response (AID 651697); type: functional; conditions: read-out: IC50_Mean
Beta-lactamase [4] = biological target: Beta-lactamase (Salmonella choleraesuis (strain SC-B67), UniProt Q5J463); test: Epi-absorbance-based counterscreen for selective VIM-2 inhibitors: dose response biochemical high throughput screening assay to identify inhibitors of TEM-1 serine-beta-lactamase.
Beta-lactamase [5] = biological target: T2, Beta-lactamase (Pseudomonas aeruginosa, UniProt Q79MP6); test: inhibition of IMP-1 beta-lactamase activity – biochemical, epi-absorbance, selectivity assay for VIM-2 inhibitor project, dose response (AID 1920)
Beta-lactamase [6] = biological target: T2, Beta-lactamase; test: […] counterscreen for selective VIM-2 inhibitors: dose response biochemical high throughput screening assay to identify inhibitors of IMP-1 metallo-beta-lactamase.
[7] = biological target: T3, Small ubiquitin-related modifier 1 (Homo sapiens, UniProt P63165); test: SUMO1 protein interaction blockers, potency – biochemical, fluorescence polarization, uHTS hits, dose response (AID 624382); type: functional; conditions: read-out: IC50_Mean
[8] = biological target: T3, Small ubiquitin-related modifier 1; test: SUMO1 protein-protein binding blockers, potency – biochemical, FRET, dose response (AID 624383); type: functional; conditions: read-out: IC50_Mean
[9] = acridine orange displacement from DNA – biochemical, fluorescence polarization, cherry-pick, artefact control for RAD54 inhibitor project, dose response (AID 651673); type: functional
[10] = biological target: T4, Neuropeptides B/W receptor type 1 (Homo sapiens, UniProt P48145); test: human NPBW1 receptor blockade, IC50 – cell-based, fluorescence, dose response, set 6, late-stage follow-up (AID 588583); type: functional
T4 sequence (P48145 whole entry): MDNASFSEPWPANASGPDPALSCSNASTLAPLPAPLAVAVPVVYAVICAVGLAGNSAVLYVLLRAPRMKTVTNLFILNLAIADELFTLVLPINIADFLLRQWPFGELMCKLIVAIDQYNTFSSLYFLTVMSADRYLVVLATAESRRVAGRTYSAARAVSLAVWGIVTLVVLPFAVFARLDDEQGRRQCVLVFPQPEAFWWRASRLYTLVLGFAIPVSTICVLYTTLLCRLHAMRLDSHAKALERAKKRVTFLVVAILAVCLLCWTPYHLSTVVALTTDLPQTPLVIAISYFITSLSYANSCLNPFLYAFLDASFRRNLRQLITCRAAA

[11] = biological target: Melanin-concentrating hormone receptor 1 (Homo sapiens, UniProt Q99705); test: Late-stage fluorescence-based counterscreen for antagonists of the G-protein coupled receptor 7 (GPR7): cell-based dose response assay to identify antagonists of the melanin-concentrating hormone receptor 1 (MCHR1) Set 6.; type: functional
Melanin-concentrating hormone receptor 1, sequence (Q99705 whole entry): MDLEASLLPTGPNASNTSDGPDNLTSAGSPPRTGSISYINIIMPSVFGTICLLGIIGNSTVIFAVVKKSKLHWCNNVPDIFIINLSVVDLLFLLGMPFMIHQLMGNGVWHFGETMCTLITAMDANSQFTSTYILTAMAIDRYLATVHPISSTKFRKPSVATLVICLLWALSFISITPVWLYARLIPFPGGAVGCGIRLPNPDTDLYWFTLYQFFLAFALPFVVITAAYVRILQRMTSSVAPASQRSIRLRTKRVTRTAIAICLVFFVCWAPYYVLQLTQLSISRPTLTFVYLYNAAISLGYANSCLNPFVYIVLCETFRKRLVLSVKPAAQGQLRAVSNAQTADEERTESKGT

T2 sequence (Q79MP6 whole entry): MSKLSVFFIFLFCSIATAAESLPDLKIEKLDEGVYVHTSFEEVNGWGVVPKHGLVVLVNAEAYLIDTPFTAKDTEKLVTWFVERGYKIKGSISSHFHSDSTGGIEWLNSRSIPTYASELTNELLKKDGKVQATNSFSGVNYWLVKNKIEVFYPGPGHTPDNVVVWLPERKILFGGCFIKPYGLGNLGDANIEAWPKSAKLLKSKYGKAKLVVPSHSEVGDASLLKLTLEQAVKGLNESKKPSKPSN
Beta-lactamase (Salmonella choleraesuis (strain SC-B67), UniProt Q5J463), sequence (Q5J463 whole entry): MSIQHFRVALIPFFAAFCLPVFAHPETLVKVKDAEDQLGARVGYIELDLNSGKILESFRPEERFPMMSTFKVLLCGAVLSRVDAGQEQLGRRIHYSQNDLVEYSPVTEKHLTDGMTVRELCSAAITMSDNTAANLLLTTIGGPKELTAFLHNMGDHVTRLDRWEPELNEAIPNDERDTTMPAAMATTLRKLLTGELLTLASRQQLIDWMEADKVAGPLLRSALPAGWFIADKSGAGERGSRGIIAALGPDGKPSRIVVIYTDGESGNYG
T3 sequence (P63165 whole entry): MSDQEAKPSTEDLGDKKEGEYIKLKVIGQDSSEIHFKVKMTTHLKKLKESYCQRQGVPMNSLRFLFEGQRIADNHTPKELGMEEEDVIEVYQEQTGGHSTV

With Cc1ccc(S(=O)(=O)c2nc(-c3ccccc3Cl)oc2N(C)C2CCN(C)CC2)cc1 the AC50 [1] was 23.3 µM (active).
For O=C(c1ccncc1)N1CCCC(N2CCN(c3cccc(C(F)(F)F)c3)CC2)C1 (stereo unspecified), the AC50 (Vero) was 31.8 µM (active).
With Cc1c(C#N)c(O)nc(O)c1N=Nc1ccc(Br)cc1C(=O)O the IC50 [2] was 10.6 µM (active) and the IC50 [3] was 18.1 µM (active).
In the case of CCn1c(-c2nn(-c3ccccc3)ccc2=O)n[nH]c1=S, the IC50 (Beta-lactamase [4]) is reported as > 59.6 µM (inactive), the IC50 (Beta-lactamase [5]) is reported as > 59.6 µM (inactive) and the IC50 (Beta-lactamase [6]) is reported as > 59.6 µM (inactive).
With CCCCCCC(=O)Nc1nc(C)c(-c2csc(Nc3cc(Cl)ccc3C)n2)s1 the IC50 [7] was > 66.6 µM (inactive) and the IC50 [8] was 10.1 µM (active).
With COCCNC(=O)c1cc2cc3ccc(OC)cc3nc2o1 the AC50 (Vero) was 27.7 µM (active).
For Cc1nc2oc3c(O)ncnc3c2c2c1COC(C)(C)C2, the AC50 [9] was 67.1 µM (active).
For COc1ccccc1-n1c(S)nnc1-c1ccco1, the IC50 (Beta-lactamase [4]) was > 59.6 µM (inactive), the IC50 (Beta-lactamase [5]) was > 59.6 µM (inactive) and the IC50 (Beta-lactamase [6]) was > 59.6 µM (inactive).
In the case of O=c1c(-c2ccc(F)c(F)c2)c(Br)cnn1Cc1cccc2ccccc12, the IC50 [10] is reported as 0.686 µM (active) and the IC50 [11] is reported as 0.686 µM (active).
